# Source: patent publication US6706663B2, “Herbicidal 3-heterocyclic substituted benzisothiazole and benzisoxazole compounds” (Wyeth, priority 2000, dated 2004)
# Legend:
# [1] = test system: ECHCG (Echinochloa crus-galli); test: Postemergence herbicidal evaluation; assay type: in vivo, (L.) Beau
# How it was run: (§1)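 Seedlings grown about two weeks in flats, sprayed, then kept under standard greenhouse care. Rated visually 4–5 weeks after treatment on a 0–9 scale (stand, vigour, malformation, size, chlorosis, overall appearance) relative to untreated control; repeat tests averaged.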
# SETVI (Setaria viridis) = test: Postemergence herbicidal evaluation; assay type: in vivo, (L.) Beau
# How it was run: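 Visual injury score (0-9: stand, vigor, malformation, size, chlorosis, overall appearance vs untreated control) taken four to five weeks post-spray. Two-week-old seedlings received about 0.0040 to 1.000 kg/ha active compound in acetone/water with 0.5% TWEEN 20.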
# [2] = test system: TRZAWR (Wheat, Winter, cv Riband); test: Postemergence herbicidal evaluation; assay type: in vivo, Triticum aestivum
# How it was run: as §1
# [3] = test system: ABUTH (Abutilon theophrasti); test: Preemergence herbicidal evaluation; assay type: in vivo, Medic.; conditions: preemergence, rated 4-5 weeks after treatment
# [4] = test system: AMBEL (Ambrosia artemisifolia); test: Preemergence herbicidal evaluation; assay type: in vivo, L.; conditions: preemergence, rated 4-5 weeks after treatment
# How it was run: (§2)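 Visual 0–9 rating versus control (stand, vigor, malformation, size, chlorosis, overall appearance), scored four to five weeks post-treatment. Preemergence spray of aqueous acetone solution onto freshly seeded soil cups; plants grown under conventional greenhouse care.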
# [5] = test system: CASOB (Cassia obtusifolia); test: Preemergence herbicidal evaluation; assay type: in vivo, L.; conditions: preemergence, rated 4-5 weeks after treatment
# How it was run: as §2
# [6] = test system: CHEAL (Chenopodium album); test: Preemergence herbicidal evaluation; assay type: in vivo, L.; conditions: preemergence, rated 4-5 weeks after treatment
# How it was run: as §2
# [7] = test system: IPOHE (Ipomoea hederacea); test: Preemergence herbicidal evaluation; assay type: in vivo, (L.) Jacq.; conditions: preemergence, rated 4-5 weeks after treatment
# [8] = test system: GLXMAW (Soybean, Williams); test: Preemergence herbicidal evaluation; assay type: in vivo, Glycine max, (L.) Merr. cv Williams; conditions: preemergence, rated 4-5 weeks after treatment
# ZEAMX (Corn, Field) = test: Preemergence herbicidal evaluation; assay type: in vivo, Zea mays, L.; conditions: preemergence, rated 4-5 weeks after treatment
# [9] = test system: ECHORC (Echinochloa oryzoides); test: Flooded paddy, preemergence weed control; assay type: in vivo, Echinochloa oryzoides (Ard.) Fritsch.; conditions: rated 3-4 weeks after treatment, 0-9 rating scale
# How it was run: (§3)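 Visual 0–9 ratings versus controls scored stand, vigor, malformation, size, chlorosis and overall appearance. Plants grew from seeds or propagating organs sown 0.5 cm deep in silt loam, with water held 1.5–3 cm above the soil for the whole test under greenhouse care.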
# CYPIR (Cyperus iria) = test: Flooded paddy, preemergence weed control; assay type: in vivo; conditions: rated 3-4 weeks after treatment, 0-9 rating scale
# How it was run: as §3
# [10] = test system: CYPSE (Cyperus serotinus); test: Flooded paddy, preemergence weed control; assay type: in vivo, Rottb.; conditions: rated 3-4 weeks after treatment, 0-9 rating scale
# How it was run: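 Herbicidal effect was scored visually on a 0–9 scale against an untreated control 3–4 weeks after treatment. Compounds were applied preemergence as 50/50 v/v aqueous/acetone mixtures into flood water (1.5–3 cm deep over silt loam), at roughly 0.0080 to 0.1250 kg/ha active ingredient.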
# [11] = test system: MOOVA (Monochoria vaginalis); test: Flooded paddy, preemergence weed control; assay type: in vivo, Presl.; conditions: rated 3-4 weeks after treatment, 0-9 rating scale
# How it was run: as §3
# [12] = test system: SAGPY (Sagittaria pygmaea); test: Flooded paddy, preemergence weed control; assay type: in vivo, L.; conditions: rated 3-4 weeks after treatment, 0-9 rating scale
# How it was run: as §3
# ORYSAT (Rice, Tebonnet) = test: Flooded paddy, post-transplant rice tolerance; assay type: in vivo, Oryza sativa, (L.) Tebonnet; conditions: flooded paddy, post-transplant rice, rated 3-4 weeks after treatment, 0-9 rating scale
# How it was run: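 Visual 0-9 rating against a control, covering stand, vigor, malformation, size, chlorosis and overall appearance. Treatment was applied after transplanting paired ten-day-old seedlings into flooded silt loam, with water kept 1.5 to 3 cm deep on greenhouse benches.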
structure (smiles),measurement,setting,value
"Cc1ccsc1-c1nsc2ccc(-n3c(=O)cc(C(F)(F)F)n(C)c3=O)cc12 [Compound 4, 1-methyl-3-[3-(3-methyl-2-thienyl)-1,2-benzisothiazol-5-yl]-6-(trifluoromethyl)uracil]","Postemergence herbicidal rating, ECHCG",[1]; rate 0.0320 kg/ha,2.0
same,"Postemergence herbicidal rating, ECHCG",[1]; rate 0.0620 kg/ha,2.8
same,"Postemergence herbicidal rating, ECHCG",[1]; rate 0.1250 kg/ha,1.7
same,"Postemergence herbicidal rating, SETVI",SETVI (Setaria viridis); rate 0.0320 kg/ha,5.0
same,"Postemergence herbicidal rating, SETVI",SETVI (Setaria viridis); rate 0.0620 kg/ha,6.3
same,"Postemergence herbicidal rating, SETVI",SETVI (Setaria viridis); rate 0.1250 kg/ha,7.3
same,"Postemergence herbicidal rating, TRZAWR",[2]; rate 0.0320 kg/ha,3.7
same,"Postemergence herbicidal rating, TRZAWR",[2]; rate 0.0620 kg/ha,4.2
same,"Postemergence herbicidal rating, TRZAWR",[2]; rate 0.1250 kg/ha,5.2
same,ABUTH preemergence herbicidal rating,[3]; Rate 0.0620 kg/ha,7.8
same,ABUTH preemergence herbicidal rating,[3]; Rate 0.1250 kg/ha,8.9
same,ABUTH preemergence herbicidal rating,[3]; Rate 0.2500 kg/ha,9.0
same,AMBEL preemergence herbicidal rating,[4]; Rate 0.0620 kg/ha,5.9
same,AMBEL preemergence herbicidal rating,[4]; Rate 0.1250 kg/ha,7.3
same,AMBEL preemergence herbicidal rating,[4]; Rate 0.2500 kg/ha,8.9
same,CASOB preemergence herbicidal rating,[5]; Rate 0.0620 kg/ha,1.3
same,CASOB preemergence herbicidal rating,[5]; Rate 0.1250 kg/ha,3.4
same,CASOB preemergence herbicidal rating,[5]; Rate 0.2500 kg/ha,5.0
same,CHEAL preemergence herbicidal rating,[6]; Rate 0.0620 kg/ha,9.0
same,CHEAL preemergence herbicidal rating,[6]; Rate 0.1250 kg/ha,9.0
same,CHEAL preemergence herbicidal rating,[6]; Rate 0.2500 kg/ha,8.0
same,IPOHE preemergence herbicidal rating,[7]; Rate 0.0620 kg/ha,4.7
same,IPOHE preemergence herbicidal rating,[7]; Rate 0.1250 kg/ha,6.3
same,IPOHE preemergence herbicidal rating,[7]; Rate 0.2500 kg/ha,7.6
same,GLXMAW preemergence herbicidal rating,[8]; Rate 0.0620 kg/ha,2.7
same,GLXMAW preemergence herbicidal rating,[8]; Rate 0.1250 kg/ha,4.4
same,GLXMAW preemergence herbicidal rating,[8]; Rate 0.2500 kg/ha,6.0
same,ZEAMX preemergence herbicidal rating,"ZEAMX (Corn, Field); Rate 0.0620 kg/ha",3.2
same,ZEAMX preemergence herbicidal rating,"ZEAMX (Corn, Field); Rate 0.1250 kg/ha",4.2
same,ZEAMX preemergence herbicidal rating,"ZEAMX (Corn, Field); Rate 0.2500 kg/ha",5.4
same,"herbicidal rating, ECHORC",[9]; rate 0.0080 kg/ha,4.0
same,"herbicidal rating, ECHORC",[9]; rate 0.0320 kg/ha,9.0
same,"herbicidal rating, ECHORC",[9]; rate 0.1250 kg/ha,9.0
same,"herbicidal rating, CYPIR",CYPIR (Cyperus iria); rate 0.0080 kg/ha,2.0
same,"herbicidal rating, CYPIR",CYPIR (Cyperus iria); rate 0.0320 kg/ha,9.0
same,"herbicidal rating, CYPIR",CYPIR (Cyperus iria); rate 0.1250 kg/ha,9.0
same,"herbicidal rating, CYPSE",[10]; rate 0.0080 kg/ha,0.0
same,"herbicidal rating, CYPSE",[10]; rate 0.0320 kg/ha,6.5
same,"herbicidal rating, CYPSE",[10]; rate 0.1250 kg/ha,9.0
same,"herbicidal rating, MOOVA",[11]; rate 0.0080 kg/ha,9.0
same,"herbicidal rating, MOOVA",[11]; rate 0.0320 kg/ha,9.0
same,"herbicidal rating, MOOVA",[11]; rate 0.1250 kg/ha,9.0
same,"herbicidal rating, SAGPY",[12]; rate 0.0080 kg/ha,0.0
same,"herbicidal rating, SAGPY",[12]; rate 0.0320 kg/ha,2.0
same,"herbicidal rating, SAGPY",[12]; rate 0.1250 kg/ha,5.5
same,"herbicidal rating, ORYSAT (rice tolerance)","ORYSAT (Rice, Tebonnet); rate 0.0080 kg/ha",2.0
same,"herbicidal rating, ORYSAT (rice tolerance)","ORYSAT (Rice, Tebonnet); rate 0.0320 kg/ha",3.5
same,"herbicidal rating, ORYSAT (rice tolerance)","ORYSAT (Rice, Tebonnet); rate 0.1250 kg/ha",4.0
"Cn1ccnc1-c1nsc2ccc(-n3c(=O)cc(C(F)(F)F)n(C)c3=O)cc12 [Compound 5, 1-methyl-3-[3-(1-methylimidazol-2-yl)-1,2-benzisothiazol-5-yl]-6-(trifluoromethyl)uracil]","Postemergence herbicidal rating, ECHCG",[1]; rate 0.0320 kg/ha,0.0
same,"Postemergence herbicidal rating, ECHCG",[1]; rate 0.0620 kg/ha,0.0
same,"Postemergence herbicidal rating, SETVI",SETVI (Setaria viridis); rate 0.0320 kg/ha,0.0
same,"Postemergence herbicidal rating, SETVI",SETVI (Setaria viridis); rate 0.0620 kg/ha,1.0
same,"Postemergence herbicidal rating, TRZAWR",[2]; rate 0.0320 kg/ha,2.5
same,"Postemergence herbicidal rating, TRZAWR",[2]; rate 0.0620 kg/ha,3.5
same,ABUTH preemergence herbicidal rating,[3]; Rate 0.0620 kg/ha,7.0
same,ABUTH preemergence herbicidal rating,[3]; Rate 0.1250 kg/ha,9.0
same,ABUTH preemergence herbicidal rating,[3]; Rate 0.2500 kg/ha,9.0
same,AMBEL preemergence herbicidal rating,[4]; Rate 0.0620 kg/ha,8.5
same,AMBEL preemergence herbicidal rating,[4]; Rate 0.1250 kg/ha,9.0
same,AMBEL preemergence herbicidal rating,[4]; Rate 0.2500 kg/ha,9.0
same,CASOB preemergence herbicidal rating,[5]; Rate 0.0620 kg/ha,0.0
same,CASOB preemergence herbicidal rating,[5]; Rate 0.1250 kg/ha,1.0
same,CASOB preemergence herbicidal rating,[5]; Rate 0.2500 kg/ha,5.5
same,CHEAL preemergence herbicidal rating,[6]; Rate 0.0620 kg/ha,9.0
same,CHEAL preemergence herbicidal rating,[6]; Rate 0.1250 kg/ha,9.0
same,CHEAL preemergence herbicidal rating,[6]; Rate 0.2500 kg/ha,9.0
same,IPOHE preemergence herbicidal rating,[7]; Rate 0.0620 kg/ha,4.0
same,IPOHE preemergence herbicidal rating,[7]; Rate 0.1250 kg/ha,9.0
same,IPOHE preemergence herbicidal rating,[7]; Rate 0.2500 kg/ha,9.0
same,GLXMAW preemergence herbicidal rating,[8]; Rate 0.0620 kg/ha,2.0
same,GLXMAW preemergence herbicidal rating,[8]; Rate 0.1250 kg/ha,3.5
same,GLXMAW preemergence herbicidal rating,[8]; Rate 0.2500 kg/ha,6.5
same,ZEAMX preemergence herbicidal rating,"ZEAMX (Corn, Field); Rate 0.0620 kg/ha",4.0
same,ZEAMX preemergence herbicidal rating,"ZEAMX (Corn, Field); Rate 0.1250 kg/ha",6.5
same,ZEAMX preemergence herbicidal rating,"ZEAMX (Corn, Field); Rate 0.2500 kg/ha",7.0
same,"herbicidal rating, ECHORC",[9]; rate 0.0320 kg/ha,0.0
same,"herbicidal rating, ECHORC",[9]; rate 0.1250 kg/ha,2.0
same,"herbicidal rating, CYPIR",CYPIR (Cyperus iria); rate 0.0320 kg/ha,0.0
same,"herbicidal rating, CYPIR",CYPIR (Cyperus iria); rate 0.1250 kg/ha,7.0
same,"herbicidal rating, CYPSE",[10]; rate 0.0320 kg/ha,0.0
same,"herbicidal rating, CYPSE",[10]; rate 0.1250 kg/ha,0.0
same,"herbicidal rating, MOOVA",[11]; rate 0.0320 kg/ha,2.0
same,"herbicidal rating, MOOVA",[11]; rate 0.1250 kg/ha,9.0
same,"herbicidal rating, SAGPY",[12]; rate 0.0320 kg/ha,0.0
same,"herbicidal rating, SAGPY",[12]; rate 0.1250 kg/ha,0.0
same,"herbicidal rating, ORYSAT (rice tolerance)","ORYSAT (Rice, Tebonnet); rate 0.0320 kg/ha",2.0
same,"herbicidal rating, ORYSAT (rice tolerance)","ORYSAT (Rice, Tebonnet); rate 0.1250 kg/ha",3.0
